The values below come from patent US11066414B2, “Cot modulators and methods of use thereof” (Gilead Sciences, Inc., priority 2015, dated 2021).

The test system of test [1] is TNFα. In words: Cot Monocyte TNFα Cell Based Assay.
The target in test [2] is Human Cot (Homo sapiens (Human), UniProt P41279). The test can be described thus: High Throughput Cot Biochemical Assay.
The mark [3] stands for this setting: Homo sapiens, Monocyte, read-out: EC50 TNF, LPS-stimulated human monocytes, TNFα TR-FRET.
Where [4] appears, read: IC50 HTRF, Cot HTRF (TR-FRET KinEASE) biochemical assay, 400 μM ATP.
Where [5] appears, read: Homo sapiens, Monocyte, read-out: EC50 TNF, LPS-stimulated human monocytes, TNFα.
[6] abbreviates: IC50 HTRF, Cot HTRF (TR-FRET) biochemical assay.
The mark [7] stands for this setting: read-out: EC50 TNF, LPS-stimulated human monocytes, TNFα TR-FRET.
Where [8] appears, read: read-out: IC50 HTRF, Cot HTRF (TR-FRET KinEASE) biochemical assay, 400 μM ATP.

Read-outs that look alike come from different tables or passages of the source.

Human Cot, sequence (P41279 30-397): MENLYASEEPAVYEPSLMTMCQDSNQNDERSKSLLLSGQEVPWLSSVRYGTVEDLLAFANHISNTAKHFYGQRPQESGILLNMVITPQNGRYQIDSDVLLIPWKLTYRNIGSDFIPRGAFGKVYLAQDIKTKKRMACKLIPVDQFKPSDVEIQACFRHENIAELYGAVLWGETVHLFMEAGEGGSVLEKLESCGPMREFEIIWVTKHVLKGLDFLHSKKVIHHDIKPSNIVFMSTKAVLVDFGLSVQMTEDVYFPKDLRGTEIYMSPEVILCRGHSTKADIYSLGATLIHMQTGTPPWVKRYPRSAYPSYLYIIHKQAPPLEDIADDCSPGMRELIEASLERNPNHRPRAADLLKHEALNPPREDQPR

Turning to `Cc1nc(F)ccc1[C@H](Nc1cc(C#N)c2ncc(C#N)c(NCC34CC(C3)C4)c2c1)c1cn(C2(C(F)F)CC2)nn1` [Example 849, (S)-4-((bicyclo[1.1.1]pentan-1-ylmethyl)amino)-6-(((1-(1-(difluoromethyl)-cyclopropyl)-1H-1,2,3-triazol-4-yl)(6-fluoro-2-methylpyridin-3-yl)methyl)amino)quinoline-3,8-dicarbonitrile], the EC50 (as a rule, the concentration needed to bring the measured effect to its halfway point) in test [1] (setting [3]) was found to be 261 nM. The IC50 (in general, the midpoint of a concentration-inhibition curve) in test [2] (setting [4]) came out at 16 nM.

On to `CC(C)(C)CNc1c(C#N)cnc2c(C#N)cc(N[C@H](c3cn(C45CC(C4)C5)nn3)c3ccc(F)c4ncccc34)cc12` [Example 814, (S)-6-(((1-(bicyclo[1.1.1]pentan-1-yl)-1H-1,2,3-triazol-4-yl)(8-fluoroquinolin-5-yl)methyl)amino)-4-(neopentylamino)quinoline-3,8-dicarbonitrile], for which the EC50 in test [1] (setting [3]) is 16 nM. The IC50 in test [2] (setting [4]) worked out at 2 nM.

As for `CC(C)(C)CNc1c(C#N)cnc2c(Cl)cc(N[C@H](c3cn(C4(C(F)(F)F)CC4)nn3)c3cccc4cnccc34)cc12` [Example 462, (S)-8-chloro-6-((isoquinolin-5-yl(1-(1-(trifluoromethyl)cyclopropyl)-1H-1,2,3-triazol-4-yl)methyl)amino)-4-(neopentylamino)quinoline-3-carbonitrile], in test [1] (setting [5]), the EC50 came out at 8770 nM. Besides, it took 162 nM to reach half-maximal inhibition in test [2] (setting [6]) (IC50).

Regarding `CC(C)(C)CNc1c(C#N)cnc2c(C#N)cc(N[C@@H](c3ccc4nccn4c3)c3cn(C4(C(F)(F)F)CC4)nn3)cc12` [Example 822, (S)-6-((imidazo[1,2-a]pyridin-6-yl(1-(1-(trifluoromethyl)cyclopropyl)-1H-1,2,3-triazol-4-yl)methyl)amino)-4-(neopentylamino)quinoline-3,8-dicarbonitrile], in test [1] (setting [3]), the EC50 was 687 nM. For the same compound, the IC50 in test [2] (setting [4]) is 10 nM.

Take `COc1cc(N[C@H](c2cn(C3(C#N)CC3)nn2)c2ccc(F)nc2C)cc2c(NCC(C)(C)C)c(C#N)cnc12` [Example 596, (S)-6-(((1-(1-cyanocyclopropyl)-1H-1,2,3-triazol-4-yl)(6-fluoro-2-methylpyridin-3-yl)methyl)amino)-8-methoxy-4-(neopentylamino)quinoline-3-carbonitrile]: in test [1] (setting [5]), the EC50 came out at 826 nM. Further, in test [2] (setting [6]), it took 79 nM to reach half-maximal inhibition (IC50).

As for `CC[C@@H](Nc1c(C#N)cnc2c(Cl)cc(N[C@@H](c3ccc(F)nc3C)c3nnn(C4(C(F)(F)F)CC4)c3F)cc12)c1ccccc1` [Example 950, 8-chloro-6-(((S)-(5-fluoro-1-(1-(trifluoromethyl)cyclopropyl)-1H-1,2,3-triazol-4-yl)(6-fluoro-2-methylpyridin-3-yl)methyl)amino)-4-(((R)-1-phenylpropyl)amino)quinoline-3-carbonitrile], in test [1] (setting [3]), the EC50 came to 260 nM. In test [2] (setting [4]), this compound gave an IC50 of 17 nM.

Take `[2H][C@](Nc1cc(C#N)c2ncc(C#N)c(NCC(C)(C)C)c2c1)(c1ccc(F)nc1)c1cn(C2CC2)nn1` [Example 116, (S)-6-(((1-cyclopropyl-1H-1,2,3-triazol-4-yl)(6-fluoropyridin-3-yl)methyl-d)amino)-4-(neopentylamino)quinoline-3,8-dicarbonitrile]: in test [1] (setting [5]), the EC50 came to 144 nM. Moreover, half-maximal inhibition in test [2] (setting [6]) (IC50) was put at 3 nM.

Take `Cc1ncsc1[C@H](Nc1cc(Cl)c2ncc(C#N)c(N[C@H](C)c3ccccc3)c2c1)c1cn(C2CCN(C(C)(C)C)CC2)nn1` [Example 240, 6-(((R)-(1-(1-(tert-butyl)piperidin-4-yl)-1H-1,2,3-triazol-4-yl)(4-methylthiazol-5-yl)methyl)amino)-8-chloro-4-(((R)-1-phenylethyl)amino)quinoline-3-carbonitrile]: the EC50 in test [1] (setting [5]) stood at 631 nM. In test [2] (setting [6]), this compound registered an IC50 of 16 nM.

For the compound `Cc1ncccc1[C@H](Nc1cc(Cl)c2ncc(C#N)c(Nc3cccc(Cl)c3F)c2c1)c1cn(C(C)C)nn1` [Example 245, (S)-8-chloro-4-((3-chloro-2-fluorophenyl)amino)-6-(((1-isopropyl-1H-1,2,3-triazol-4-yl)(2-methylpyridin-3-yl)methyl)amino)quinoline-3-carbonitrile], the EC50 in test [1] (setting [5]) was 125 nM. The compound also showed a concentration for half-maximal inhibition (IC50) in test [2] (setting [6]) of 2 nM.

Turning to `Cc1nc(F)ccc1[C@H](Nc1cc(C#N)c2ncc(C#N)c(NCC(C)(C)C)c2c1)c1cn(C2(CF)CC2)nn1` [Example 503, (S)-6-(((6-fluoro-2-methylpyridin-3-yl)(1-(1-(fluoromethyl)cyclopropyl)-1H-1,2,3-triazol-4-yl)methyl)amino)-4-(neopentylamino)quinoline-3,8-dicarbonitrile], in test [1] (setting [5]), the EC50 was determined as 45 nM. The compound also displayed an IC50 in test [2] (setting [6]) of 2 nM.

Turning to `N#Cc1cnc2c(Cl)cc(N[C@H](c3cn(CCO)nn3)c3cccnc3Cl)cc2c1Nc1ccc(F)c(Cl)c1` [Example 331, (S)-8-chloro-4-((3-chloro-4-fluorophenyl)amino)-6-(((2-chloropyridin-3-yl)(1-(2-hydroxy-ethyl)-1H-1,2,3-triazol-4-yl)methyl)amino)quinoline-3-carbonitrile], the EC50 in test [1] (setting [5]) was determined as 173 nM. Further, the IC50 in test [2] (setting [6]) worked out at 3 nM.

Regarding `N#CCC[C@@H](Nc1c(C#N)cnc2c(Cl)cc(N[C@H](c3cn(C4CC4)nn3)c3cccc4c3CNC4)cc12)c1ccccc1` [Example 68, 8-chloro-4-(((R)-3-cyano-1-phenyl-propyl)amino)-6-(((S)-(1-cyclopropyl-1H-1,2,3-triazol-4-yl)(isoindolin-4-yl)methyl)amino)quinoline-3-carbonitrile], in test [1] (setting [5]), the EC50 is 51 nM. In test [2] (setting [6]), this compound returned an IC50 of 1 nM.

In the case of `COc1nccc2c([C@H](Nc3cc(C#N)c4ncc(C#N)c(NCC(C)(C)C(F)(F)F)c4c3)c3cn(C4(C(F)F)CC4)nn3)cccc12` [Example 821], in test [1] (setting [7]), the 50% effective concentration (EC50) stood at 60 nM. In addition, the 50% inhibitory concentration (IC50) in test [2] (setting [8]) was 3 nM.

Take `CC(C)(C)CNc1c(C#N)cnc2c(Cl)cc(N[C@H](c3cn(C4(C(N)=O)CCC4)nn3)c3cccc4ncsc34)cc12` [Example 463, (S)-1-(4-(benzo[d]thiazol-7-yl((8-chloro-3-cyano-4-(neopentylamino)quinolin-6-yl)amino)methyl)-1H-1,2,3-triazol-1-yl)cyclobutane-1-carboxamide]: the EC50 in test [1] (setting [5]) was 63 nM. The compound further had an IC50 in test [2] (setting [6]) of 2 nM.

As for `CCc1ncccc1[C@H](Nc1cc(Cl)c2ncc(C#N)c(NCC(C)(C)C)c2c1)c1cn(C2(C(F)(F)F)CC2)nn1` [Example 600, (S)-8-chloro-6-(((2-ethylpyridin-3-yl)(1-(1-(trifluoromethyl)cyclopropyl)-1H-1,2,3-triazol-4-yl)methyl)amino)-4-(neopentylamino)quinoline-3-carbonitrile], in test [1] (setting [5]), the EC50 was 113 nM. Moreover, the IC50 in test [2] (setting [6]) came out at 5 nM.

`COc1nccc2c([C@H](Nc3cc(Cl)c4ncc(C#N)c(NCC(C)(C)C)c4c3)c3cn(C4(C(F)F)CC4)nn3)cccc12` [Example 914, (S)-8-chloro-6-(((1-(1-(difluoromethyl)cyclo-propyl)-1H-1,2,3-triazol-4-yl)(1-methoxylsoquinolin-5-yl)methyl)amino)-4-(neopentylamino)quinoline-3-carbonitrile]: the EC50 in test [1] (setting [7]) was found to be 116 nM. Moreover, the IC50 in test [2] (setting [8]) is 9 nM.

As for `CC(C)(C)N1CCC(n2cc([C@@H](Nc3cc(Cl)c4ncc(C#N)c(Nc5ccc(F)c(Cl)c5)c4c3)c3ccc4c(c3)NCC4)nn2)CC1` [Example 51, (S)-6-(((1-(1-(tert-butyl)piperidin-4-yl)-1H-1,2,3-triazol-4-yl)(indolin-6-yl)methyl)amino)-8-chloro-4-((3-chloro-4-fluorophenyl)amino)quinoline-3-carbonitrile], in test [1] (setting [5]), the concentration for a half-maximal effect (EC50) came out at 1560 nM. This compound also yielded an IC50 in test [2] (setting [6]) of 55 nM.

In the case of `Cc1ccnc2cccc([C@H](Nc3cc(Cl)c4ncc(C#N)c(NCC(C)(C)C)c4c3)c3cn(C4(C(F)(F)F)CC4)nn3)c12` [Example 660, (S)-8-chloro-6-(((4-methylquinolin-5-yl)(1-(1-(trifluoromethyl)cyclopropyl)-1H-1,2,3-triazol-4-yl)methyl)amino)-4-(neopentylamino)quinoline-3-carbonitrile], the EC50 in test [1] (setting [5]) was determined as 839 nM. For the same compound, the IC50 in test [2] (setting [6]) is 43 nM.

Consider `[2H][C@](Nc1cc(Cl)c2ncc(C#N)c(N[C@H](CC)c3ccccc3)c2c1)(c1ccc(F)nc1)c1cn(C(C)(C)C)nn1` [Example 118, 6-(((S)-(1-(tert-butyl)-1H-1,2,3-triazol-4-yl)(6-fluoropyridin-3-yl)methyl-d)amino)-8-chloro-4-(((R)-1-phenylpropyl)amino)quinoline-3-carbonitrile], for which the EC50 in test [1] (setting [5]) came to 150 nM. This compound also gave an IC50 in test [2] (setting [6]) of 6 nM.

`CC(C)(C)CNc1c(C#N)cnc2c(Cl)cc(N[C@@H](c3cccnc3)c3c[nH]nn3)cc12` [Example 167, (S)-8-chloro-4-(neopentylamino)-6-((pyridin-3-yl(1H-1,2,3-triazol-4-yl)methyl)amino)quinoline-3-carbonitrile]: in test [1] (setting [5]), the EC50 came to 506 nM. In addition, in test [2] (setting [6]), the IC50 stood at 4 nM.

Consider `Cc1nc(F)ccc1[C@H](Nc1cc(C#N)c2ncc(C#N)c(NCC(C)(C)C)c2c1)c1cn(CC2(C(F)(F)F)CC2)nn1` [Example 839, (S)-6-(((6-fluoro-2-methylpyridin-3-yl)(1-((1-(trifluoromethyl)cyclo-propyl)methyl)-1H-1,2,3-triazol-4-yl)methyl)amino)-4-(neopentylamino)quinoline-3,8-dicarbonitrile], for which the EC50 in test [1] (setting [3]) is 94 nM. The compound also registered an IC50 in test [2] (setting [4]) of 6 nM.

`Cc1nc(F)ccc1[C@H](Nc1cc(Cl)c2ncc(C#N)c(NCC(C)(C)C)c2c1)c1cn(C(C)(C)C)nn1` [Example 530, (S)-6-(((1-(tert-butyl)-1H-1,2,3-triazol-4-yl)(6-fluoro-2-methylpyridin-3-yl)methyl- )amino)-8-chloro-4-(neopentylamino)-quinoline-3-carbonitrile]: the EC50 in test [1] (read-out: EC50 TNF, LPS-stimulated human monocytes, TNFα) is 70 nM. For the same compound, in test [2] (read-out: IC50 HTRF, Cot HTRF (TR-FRET) biochemical assay), the IC50 was 3 nM.
